# Measured values reported in article PMC9775191, “A Subset Screen of the Compounds Australia Scaffold Library Identifies 7-Acylaminodibenzoxazepinones as Potent and Selective Hits for Anti-Giardia Drug Discovery” (Biomedicines, 2022).
# Read-outs that look alike come from different tables or passages of the source.
# Experiments:
# [1] = test system: G. duodenalis BRIS/91/HEPU/1279; assay: Primary Giardia screen at 10 µM (live-cell imaging, automated counting); assay type: cell-based, Giardia duodenalis; settings: for inhibition at 10 µM: Giardia duodenalis
# Method in brief: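 Compounds were tested once each at 10 μM final (0.2% DMSO) in culture medium under 3% O2, 5% CO2 in N2. Growth was read at 24 and 48 h by live-cell imaging with automated counting, and inhibition expressed as percent growth versus 0.2% DMSO vehicle after media-only background subtraction.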
# [2] = test system: G. duodenalis BRIS/91/HEPU/1279; assay: Giardia dose response assay, assemblage B; assay type: cell-based, Giardia duodenalis; settings: for IC50 / inhibition at 10 µM: Giardia duodenalis; for inhibition at 10 µM: read-out: % inhibition @ 10µM 48h (comment), Table S2 comment
# Method in brief: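 Assemblage B trophozoites (BRIS/91/HEPU/1279, 1.5 × 10^4 parasites/well) faced 8–12-point doubling dilutions in duplicate, incubated 48 h at 37 °C under 3% O2, 5% CO2 in N2. Parasites were imaged and counted at 24 and 48 h. Growth inhibition was taken versus vehicle controls minus background, with IC50 by log-linear interpolation.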
# [3] = test system: Neonatal foreskin fibroblast (NFF) cells; assay: Mammalian cell cytotoxicity assay (sulforhodamine B); assay type: cell-based, human; settings: for inhibition at 20 µM: ±SD; for SI (48h Gd): Table S2, NFF vs 48 h Giardia IC50
# Method in brief: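 Dose–response from a top concentration of 100 µM was run on NFF cells, with sulforhodamine B as the viability read-out. Plates included media, no-compound, DMSO and chloroquine controls. Fibroblast IC50 was divided by the G. duodenalis BRIS/91/HEPU/1279 IC50 to give the selectivity index.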
# [4] = test system: Acinetobacter baumannii (ATCC 19606); assay: Anti-bacterial activity assay; assay type: cell-based; settings: ATCC19606, 50 µM
# Description: (§1) The activity of compounds against methicillin resistant Staphylococcus aureus (ATCC 43300), Escherichia coli (ATCC 25922), Acinetobacter baumannii (ATCC 19606) and Klebsiella pneumoniae (ATCC 700603) was assessed at 50 µM in duplicate as previously described. In brief, mid-log phase bacteria cultures were added to 384-well microtiter plate wells containing compound to final cell density of 5 × 10^5 CFU/mL in 50 µL. Plates were then covered and incubated at 37 °C for 18 h without shaking. Inhibition of bacterial growth was determined by measuring absorbance at 600 nm (Tecan M1000 Pro monochromator plate reader) and calculating percentage growth inhibition relative to the negative media and bacteria without inhibitors. Vancomycin hydrochloride (Sigma-Aldrich an affiliate of Merck KGaA, Darmstadt, Germany, #861987) and colistin sulfate (Sigma-Aldrich an affiliate of Merck KGaA, Darmstadt, Germany, C4461) were on each plate as positive controls for Gram-positive (S. aureus) and Gram-negative (E. coli, A. baumannii and K. pneumoniae) bacteria, respectively.
# [5] = test system: Escherichia coli (ATCC 25922); assay: Anti-bacterial activity assay; assay type: cell-based; settings: for inhibition at 50 µM: Escherichia coli, ATCC25922, 50 µM, read-out: Bacterial Inhibition E. coli
# Description: as §1
# [6] = test system: Klebsiella pneumoniae (ATCC 700603); assay: Anti-bacterial activity assay; assay type: cell-based; settings: ATCC700603, 50 µM, read-out: Bacterial Inhibition K. pneumoniae
# Description: as §1
# [7] = test system: methicillin resistant Staphylococcus aureus (ATCC 43300); assay: Anti-bacterial activity assay; assay type: cell-based; settings: for inhibition at 50 µM: Staphylococcus aureus, ATCC43300, 50 µM, read-out: Bacterial Inhibition S. aureus
# Description: as §1
# [8] = 24 h, first singlicate assay, read-out: % Inhibition n=1 24h
# [9] = 24 h, re-assessment, read-out: % Inhibition n=2 24h
# [10] = 24 h, read-out: Average % Inhibition 24h
# [11] = 48 h, first singlicate assay, read-out: % Inhibition n=1 48h
# [12] = 48 h, re-assessment, read-out: % Inhibition n=2 48h
# [13] = 48 h, read-out: Average % Inhibition 48h
# [14] = 24 h, read-out: G. duodenalis IC50 24h, Table S2, 24 h, ±SD, max 10 µM
# [15] = 48 h, Table S2, 48 h, ±SD, max 10 µM, read-out: G. duodenalis IC50 48h
SMILES,"inhibition at 10 µM [1, 8]","inhibition at 10 µM [1, 9]","inhibition at 10 µM [1, 10]","inhibition at 10 µM [1, 11]","inhibition at 10 µM [1, 12]","inhibition at 10 µM [1, 13]","IC50 [2, 14]","IC50 [2, 15]","inhibition at 20 µM ([3]; Homo sapiens, NFF)",inhibition at 50 µM [4],inhibition at 50 µM [5],inhibition at 50 µM [6],inhibition at 50 µM [7],SI (48h Gd) [3],further results
"Cc1ccc(NC(=O)c2cc3c(Cl)ccc4c3n2CCO4)cc1 [SN00788144, Cc1ccc(cc1)NC(=O)c1cc2c(Cl)ccc3OCCn1c23]",41%,20.1%,30.5%,65.8%,32.9%,49.3%,> 10 µM,> 10 µM,31.4 ± 11.3%,20.8%,2.85%,13.5%,-2.91%,,
CC1CCN(C(=O)c2oc3ccccc3c2NC(=O)c2ccc([N+](=O)[O-])o2)CC1 [SN00788467],93.2%,82.3%,87.7%,93.9%,96.4%,95.2%,0.24 ± 0.04 µM,,,3.19%,3.73%,-1.21%,99.1%,> 166,"Average % Inhibition 48h ([1]; 48 h): > 90%; fold more potent than metronidazole ([2]; 48 h IC50): > 45 fold; IC50 ([2]; 48 h, BRIS/91/HEPU/1279, 48 h, mean ± SD, read-out: IC50 Giardia (48 h)): 0.06 µM; IC50 ([3]; Homo sapiens, NFF, mean ± SD, read-out: IC50 NFF): > 10 µM; Selectivity ([3]; NFF IC50 divided by G. duodenalis BRIS/91/HEPU/1279 IC50): >166; selectivity index over bacteria ([5]; E. coli, A. baumannii and K. pneumoniae / bacteria, Table S2): > 800; Bacterial Inhibition S. aureus ([7]; 50 µM): 99%"
"CCc1nnc2c3ccccc3nc(N3CCN(c4cccc(Cl)c4)CC3)n12 [SN00788523, CCc1nnc2n1c(nc1ccccc21)N1CCN(CC1)c1cccc(Cl)c1]",38.2%,28.9%,33.6%,65.8%,80.4%,73.1%,> 10 µM,6.91 µM,-0.2 ± 22.2%,1.85%,2.37%,22.1%,1.08%,> 2,inhibition at 10 µM ([2]; 48 h): 44%
"COc1cc(NS(=O)(=O)c2ccc(C)cc2)cc2sc(NC(=O)c3ccccc3)nc12 [SN00790147, COc1cc(cc2sc(NC(=O)c3ccccc3)nc12)NS(=O)(=O)c1ccc(C)cc1]",34.5%,12.8%,23.6%,56.9%,43.2%,50.1%,> 10 µM,> 10 µM,53.3 ± 7.1%,3.03%,-1.53%,6.94%,11.9%,,
"Cc1ccc(C)c(-c2cc3c4nn(CC(=O)N(C)c5ccc(F)cc5)c(=O)n4ccn3n2)c1 [SN00790641, Fc1ccc(cc1)N(C)C(=O)Cn1nc2c3cc(nn3ccn2c1=O)c1cc(C)ccc1C]",88.6%,70.6%,79.6%,95%,97.7%,96.3%,2.84 µM,3.41 ± 2.02 µM,40.4 ± 1.1%,4.72%,0.25%,6.73%,-6.6%,> 5,Average % Inhibition 48h ([1]; 48 h): > 90%
"O=C(NC1CCCCC1)c1nc(Nc2ccccc2)c2ccccc2n1 [SN00792461, O=C(NC1CCCCC1)c1nc(Nc2ccccc2)c2ccccc2n1]",44.7%,74.4%,59.5%,57.7%,88.5%,73.1%,5.35 µM,7.82 µM,21.3 ± 27.1%,10.8%,3.63%,12.6%,8.09%,> 2,
"Cc1ccc(NC(=O)CN2C(=O)C3CCCCN3c3ccc(C(=O)N4CCCC4)cc32)cc1 (stereo not shown) [SN00792764, Cc1ccc(cc1)NC(=O)CN1C(=O)C2CCCCN2c2ccc(cc12)C(=O)N1CCCC1]",43.9%,27.1%,35.5%,59%,65.8%,62.4%,> 10 µM,> 10 µM,16.6 ± 20.4%,4.12%,3.43%,5.08%,-1.85%,,inhibition at 10 µM ([2]; 48 h): 45.9%
"CCOc1ccc(CCNC(=O)c2ccc3c(c2)nc2n3CCOC2)cc1OCC [SN00792841, CCOc1cc(CCNC(=O)c2ccc3c(c2)nc2COCCn32)ccc1OCC]",41.7%,12.7%,27.2%,88.5%,71.1%,79.8%,> 10 µM,4.75 ± 4.02 µM,-24.8 ± 15.3%,2.57%,-0.09%,7.3%,-0.24%,> 4,
"COc1ccccc1N1CCN(C(=O)c2cc3c(C)nn(-c4ccc(C)cc4)c3s2)CC1 [SN00793100, COc1ccccc1N1CCN(CC1)C(=O)c1cc2c(C)nn(c3ccc(C)cc3)c2s1]",51.9%,44%,48%,62.1%,69.2%,65.6%,> 10 µM,> 10 µM,46.7 ± 6.8%,9.06%,1.35%,7.52%,10.1%,,
